Data reported in patent US20100204277A1, “Compositions and Methods for Controlling Infestation” (HATCHTECH PTY LTD., priority 2007, published 2010).

What was measured:
[1] = system: proteases in louse egg shell washings (ESW); experiment: Gelatine substrate SDS-PAGE of louse egg shell washings incubated with protease inhibitors; format: biochemical, Pediculus humanus humanus
Description: Within 12 hours of hatching 50 body lice eggs (Pediculus humanus humanus) were removed from the hair and placed in a 1 mL eppendorf tube. 20 μL of distilled water was added to the unhatched eggs and the preparation incubated for 30 minutes at 32° C. The 20 μL was recovered, freeze dried and stored at −70° C. This sample was referred to as sample 1. A number of other samples were also collected as described. Sample 2 was collected by removing the unhatched louse eggs from four hairs that were approximately 3 cm long, cutting the hair into 0.5 cm lengths, and placing them into a microfuge tube containing 20 μl of distilled water and incubating at 32° C. for 30 minutes. Sample 3 was collected as for sample 2, but the hair was placed in a tube containing 10 mL of 1% sodium hypochlorite for 1 minute followed by five 1 minute washes in 25 mL of distilled water to remove the sodium hypochlorite before being incubated in a microfuge tube containing 20 μl of distilled water and incubated as for Sample 2. Sample 4 was collected from unhatched eggs which were removed from the hair and washed with 1% sodium hypochlorite and incubated in 20 μl of distilled water in the same manner as the hair in Sample 3. Finally, Sample 5 was collected from eggs that were within 24 hrs of hatching which were washed with 1% sodium hypochlorite, then returned to the incubator at 32° C. until they hatched, the empty egg shells collected 0-2 hrs after egg-hatching, placed in a 1 mL microfuge tube containing 20 μl of distilled water and incubated as for Samples 1-4. For all samples 1-5 the 20 μl of fluid was recovered, freeze-dried and stored at −70° C. The washings recovered from these freshly hatched egg shells are referred to as egg-shell-washings (ESWs). In order to look for the presence of proteases present in these different samples, the freeze-dried samples were resuspended in 15 μL of non-reducing SDS sample buffer, centrifuged at 10,000 g for 2 minutes and the entire 15 μL loaded on to 10% gelatine substrate SDS-PAGE gels. Gels were run at 4° C. for 10 minutes at 10 mA followed by a further 25 minutes at 15 mA per gel. They were then incubated for 2×20 minutes in a 2.5% Triton-X 100 solution followed by a three hour incubation in 0.1M Tris/HCl containing 1 mM CaCl2 pH 8.0. Activity was detected as clear areas on the gel the result of protease activity degrading the gelatine within the gel.
Protease activity in the ESWs from louse eggs was also examined using two-dimensional gel electrophoresis. It was necessary to collect large numbers of freshly hatched egg shells. Following egglaying onto pieces of cloth, adult female lice were removed and the cloth with the eggs washed with 1% sodium hypochlorite as for collection of ESWs. The eggs were then returned to the incubator and permitted to hatch. Typically 100 to 500 hatched egg shells were collected (0-2 hours post hatching), placed in a microfuge tube containing 200 μl of distilled water, incubated and sample treated as described above. For analysis, ESWs were resuspended in rehydration buffer (8 M Urea, 2% 3-[(3-cholamidopropyl) dimethylammonio]-1-propanesulfonate 2% Immobilised pH gradient buffer 3-10 (Amersham Phamacia Biotech, Uppsala, Sweden)) and used to rehydrate 7 cm Immobiline Dry strips pH 3-10 (Amersham Bioscience) overnight. Strips were transferred to the Multiphor II (Pharmacia, Sweden) apparatus, electrophoresed in the first dimension at 200 V for 1 min, increasing to 3,500 V over the next 90 min followed by 65 min at 3,500 V, equilibrated (6 M urea, 30% glycerol, 50 mM Tris pH 8.8 and 2% SDS) and then run on a 10% SDS-PAGE gel containing 0.1% gelatin for the second dimension. The gel was then run and developed as previously described.
10% SDS-PAGE gelatine substrate gels were loaded with freeze dried egg shell washings from 100 lice eggs that had been resuspended in 50 μL of non-reducing sample buffer with samples run at 10 μL per lane. […]

head lice egg = experiment: Head lice egg hatching, time course; format: in vivo, Pediculus humanus capitus; conditions: 10 mM, 10 minutes
Description: Tests were carried out to determine if metal chelating agent and metalloprotease inhibitor 1,10-phenanthroline could inhibit head lice egg (Pediculus humanus capitus) hatching as opposed to body lice. Head lice eggs were obtained by placing groups of both 1-2 adult male and 6-8 adult female head lice in separate wells in a 24 well petri dish containing cotton cloth. The petri dish was transferred to a humid incubator at 32° C., 70% RH for 12 hours to permit the female lice to lay their eggs. After 12 hours, all adult lice were removed from the petri dish wells and a series of time-course experiments conducted. A group of eggs (24 hr old) was treated for 10 minutes with 200 μL of a 10 mM solution of 1,10-phenanthroline. A control (ie no inhibitor treatment) group of eggs was also included. The eggs were removed from the inhibitor, blotted dry on tissue paper, placed at 32° C., 70% RH and left to hatch. A second group of eggs, (48 hours old) were treated as previously described and also left to hatch. This process was repeated at 24 hour intervals on head lice eggs up to 120 hours post laying.

[2] = system: Lice (L) / Plutella (P) eggs; format: in vivo; conditions: 10 mM; Lice/Plutella: L P
Description: Log LD50 is obtained from the observed percentage ovicidal activity by conversion using a modified logit transformation. The observed percentage ovicidal activity values were transformed using the equation:
The additional 5% was used to allow a number to be calculated when 0% and 100% activity was observed. The BA is a crude correction to the log of the concentration at which the compounds were tested. Correlation between BA values and LD50 allows the calculation of Log LD50. […] A number of metal chelating agents with potential for inhibiting the remodelling events associated with thin membrane egg hatching in lice were analysed by comparing their percentage ovicidal activity in lice at different concentrations, their logit calculated pLD50, Pref pLD50, Activity class, clogP and molar refractivity were determined.

lice eggs = experiment: Standard lice egg-hatching assay with commercial head lice products; format: in vivo; conditions: Example 10; products per manufacturer's recommendations, 1,10-phenanthroline 10 mM
Description: The ovicidal properties of three major commercial head lice products were evaluated in the standard lice egg-hatching assay. The 3 commercial head lice products were as follows:
These three products were tested according to manufacturer's recommendations. Groups of eggs (24 hours old) were treated with the different products according to manufacturer's recommendations for the appropriate period of time (5-10 minutes) followed by a rinse for 1-2 minutes in 32° C. water. A positive controls (10 mM 1,10-phenanthroline) and two negative controls (no treatment and 20% Methanol) were also incorporated. Post exposure to the different products, the eggs were rinsed with warm water at 32° C. before being blotted dry on tissue paper and placed at 32° C., 70% RH and left to hatch. A second group of eggs, (48 hours old) were treated as previously described and also left to hatch. This process was repeated at 24 hour intervals on head lice eggs up to 120 hours post laying.
The ovicidal properties of two major commercial head lice products were evaluated in the standard lice egg-hatching assay. The 2 commercial head lice products were as follows:
These two products were tested according to manufacturer's recommendations. […]

[3] = system: Helicoverpa armigera eggs; experiment: Helicoverpa egg hatch; conditions: 10 mM; Example 16; exposed 2-10 seconds; day 6 post laying
Description: A range of concentrations were made up in water and the eggs placed in the solutions for approximately 2-10 seconds. The eggs which had been laid on cloth were then blotted dry and placed in an incubator at 26° C. for 3-4 days until hatch. Hatch rates were then assessed compared to a water only treated control (FIG. 5).
The compound was dissolved in 100% diethoxyglycol and diluted to a final concentration of 1% in water.
Several hundred Helicoverpa armigera eggs (Tatura×Toowoomba strains) were collected, that had been laid on fine mesh cloth over a 24 hour period.
Batches of Helicoverpa eggs were exposed to a specific inhibitor solution for between 2-10 seconds the excess solution drained by blotting with dry tissue paper. The egg masses were then placed in a humid box at 25 degrees until egg hatch. Control eggs were exposed to absolute methanol as described above. At day 6 post laying the eggs were assessed from the different treatments and the percentage of egg hatch determined relative to the control as shown in Table 12.
Batches of Helicoverpa eggs were then exposed to a specific inhibitor solution for between 2-10 seconds the excess solution drained by blotting with dry tissue paper. The egg masses were then placed in a humid box at 25° C. until egg hatch. Control eggs were exposed to absolute methanol as described above. At day 6 post laying the eggs were assessed from the different treatments and the percentage of egg hatch determined relative to the control as shown in Table 13.

[4] = system: Plutella xylostella eggs (Waite strain); experiment: Plutella xylostella egg hatch (egg dip); conditions: 10 mM; Example 12; dip 2-10 seconds; day 6 post laying
Description: Several hundred Plutella xylostella eggs (Waite strain) were collected, that had been laid over a 24 hour period.
The egg masses were then placed in a humid box at 25° C. until egg hatch. Control eggs were exposed to absolute methanol as described above. At day 6 post laying the eggs were assessed from the different treatments and the percentage of egg hatch determined relative to the control as shown in Table 9.
Batches of Plutella eggs that were laid on either fine cloth or parafilm were dipped in a specific inhibitor solution for between 2-10 seconds, the excess solution was drained by blotting with dry tissue paper. The egg masses were then placed in a humid box at 25 degrees until egg hatch. Control eggs were exposed to absolute methanol as described above or not treated. At day 6 post laying the eggs were assessed from the different treatments and the percentage of egg hatch determined relative to the controls as shown in Tables 10 and 11.
The egg masses were then placed in a humid box at 25 degrees until egg hatch. Control eggs were exposed to absolute ethanol as described above. On day 6 post laying the eggs were assessed from the different treatments and the percentage of egg hatch determined relative to the control.

[5] = system: body lice eggs (clothing lice); experiment: In vitro lice egg hatching bioassay (standard lice assay, time course)
Description: Male and female clothing lice were fed on a rabbit as previously described. Female and male adult lice in a ratio of 3:1 were then transferred to a clean petri dish containing nylon cloth approximately 3×3 cm^2 and left for 12 hours at 32° C. During this period the female lice laid their eggs and attached them to the woven cloth. All lice would then be removed and the eggs permitted to incubate for the following 5 days. On Day 6 the cloth containing the eggs would be placed for 1 minute in a 1% sodium hypochlorite solution and then washed extensively. The eggs would then progress through to their final stages of development and hatch.
Lice eggs were laid onto cloth as described above. Five days post laying the cloth containing lice eggs was removed and immersed in a 1% sodium hypochlorite solution before being washed extensively in distilled water and blotted dry on tissue paper. Lice eggs were counted under a dissecting microscope and the cloth cut into batches of between 10-30 eggs with 3-5 replicates used per treatment. The cloth containing lice eggs was then immersed in a protease inhibitor solution for a period of 10 minutes, placed on tissue paper for 1 minute to dry before being transferred to a clean petri dish and incubated until hatching. […] Specifically a stock solution was prepared as follows: 1,10-phenanthroline (200 mM in methanol). In addition, the equivalent levels of the solvent were added to the non-inhibitor containing controls eggs to test for any buffer alone effects. Percentage hatch inhibition was calculated as the percentage reduction in egg hatch compared to the untreated control. The untreated control was assigned a percentage hatch of 100%.
A series of time-course experiments was conducted as a means of assessing inhibitors of lice egg hatching. […]
An experiment was undertaken to determine whether washing of the eggs would effect the inhibitory activity of 1,10-phenanthroline (Table 3). […] Percentage hatch inhibition was calculated as the percentage reduction in egg hatch compared to the untreated control. […]

c1cnc2c(c1)ccc1cccnc12 [1,10-phenanthroline]
protease activity of egg shell washings, two dimensional gel ([1]; gel incubated with 10 mM 1,10-phenanthroline): general reduction in protease activity in the 25-30 kDa region and a clear reduction in the proteases present around the 50 kDa region and above 75 kDa
protease activity of egg shell washings compared to untreated controls ([1]; gelatine SDS-PAGE strips, EDTA 10 mM, 1,10-phenanthroline 10 mM, PMSF 5 mM, E-64 10 μM, Pepstatin 5 μM, 3 hrs at 37° C.): reduction in protease activity
egg hatching in head lice (head lice egg): significantly inhibit
Activity class 0 = inactive 1 = low 2 = med 3 = high [2]: 1 (a pLD50 value between 2 and 3 is considered weakly active (Class 1))
ovicidal activity across the different stages of lice egg hatching (lice eggs): highly effective
% Inhibition of egg hatch relative to control [3]: able to inhibit
% Inhibition of egg hatch relative to control [4]: significantly inhibit
inhibition of lice egg hatching following washing of eggs in water ([5]; 10 mM, 10 minutes, washed 1 minute): still highly efficacious
inhibition of egg hatching in lice ([5]; 10 mM, eggs treated 5 days post laying, 10 minutes): significantly inhibited
egg hatching in lice ([5]; 2.5-10 mM, all time points examined): significantly inhibit
